Laboratory results published in article PMC8950151, “Synthesis and Evaluation of the Antifungal and Toxicological Activity of Nitrofuran Derivatives” (Pharmaceutics, 2022).
In brackets after ≈: the same amount, converted by molar mass. Where two headings read alike, the source gives them in different places.

Tests used:
[1] = system: Candida albicans (ATCC 90028); experiment: Susceptibility test (CLSI M27-A3 broth microdilution, resazurin readout), MIC90; assay type: cell-based; settings: ATCC90028, C. albicans, 24 h, 37 °C
[2] = system: C. krusei (ATCC 6258); experiment: as above; assay type: cell-based, Candida krusei; settings: Pichia kudriavzevii, ATCC6258, 24 h
[3] = system: C. glabrata (ATCC 90030); experiment: as above; assay type: cell-based, Candida glabrata; settings: Nakaseomyces glabratus, ATCC90030, 24 h, 37 °C
[4] = system: Cryptococcus neoformans (H99/ATCC 208821); experiment: as above; assay type: cell-based; settings: ATCC208821, 48 h
[5] = system: Histoplasma capsulatum (G217-B/ATCC 26032); experiment: microbe, parasite or virus in culture; assay type: cell-based; settings: ATCC26032, 144 h
[6] = system: T. rubrum (ATCC 28289); experiment: Susceptibility assay for dermatophytes (CLSI M38-A2, resazurin), MIC90; assay type: cell-based; settings: Trichophyton rubrum, ATCC28289, 96 h, 35 °C
[7] = system: Trichophyton mentagrophytes (ATCC 11481); experiment: as above; assay type: cell-based; settings: T. mentagrophytes, 35 °C
[8] = system: Candida albicans (ATCC 90028); experiment: Minimum fungicidal concentration (MFC); assay type: cell-based; settings: ATCC90028, C. albicans
[9] = system: C. krusei (ATCC 6258); experiment: Minimum fungicidal concentration (MFC); assay type: cell-based, Candida krusei; settings: Pichia kudriavzevii, ATCC6258
[10] = system: C. glabrata (ATCC 90030); experiment: Minimum fungicidal concentration (MFC); assay type: cell-based, Candida glabrata; settings: Nakaseomyces glabratus, ATCC90030
[11] = system: Cryptococcus neoformans (H99/ATCC 208821); experiment: Minimum fungicidal concentration (MFC); assay type: cell-based; settings: ATCC208821, C. neoformans
[12] = system: Histoplasma capsulatum (G217-B/ATCC 26032); experiment: microbe, parasite or virus in culture; assay type: cell-based; settings: ATCC26032
[13] = system: Paracoccidioides brasiliensis (Pb 18); experiment: microbe, parasite or virus in culture; assay type: cell-based; settings: Paracoccidioides brasiliensis
[14] = system: T. rubrum (ATCC 28289); experiment: Minimum fungicidal concentration (MFC); assay type: cell-based, Trichophyton rubrum; settings: Trichophyton rubrum, ATCC28289
[15] = system: Trichophyton mentagrophytes (ATCC 11481); experiment: Minimum fungicidal concentration (MFC); assay type: cell-based; settings: T. mentagrophytes; for MFC: Trichophyton mentagrophytes, ATCC11481; for fungistatic / fungicidal profile: MFC versus MIC90
[16] = system: A549 (ATCC CCL-185) lung epithelial cell line; experiment: Cytotoxicity assay in monolayer by resazurin colorimetric method; assay type: cell-based; settings: Homo sapiens, A549 cells, 72 h
[17] = in vivo; settings: AU37 [glp-4 (bn2) I, sek-1 (km4) X], Caenorhabditis elegans, C. elegans larvae viability
Method: The experiments were carried out with the mutant strain (AU37 [glp-4 (bn2) I; […]]). The strain was maintained on plates containing nematode growth medium (NGM) seeded with Escherichia coli OP50 at 16 °C. The stage of synchronization of young adults at stage L4 was performed for the toxicity test. About 20 larvae were transferred to each well of 96-well plates containing 100 μL of a medium composed of 60% of 50 mM NaCl; 40% BHI broth; 10 mg/mL cholesterol in ethanol; 200 mg/mL ampicillin and 90 mg/mL kanamycin. Then, 100 μL of dilutions of nitrofuran derivatives (showing the best selectivity index against the fungal species) were added. […] Plates were incubated at 25 °C for 24 h. Survival was assessed by the mobility and shape of the nematode (stick-shaped larvae were considered dead, while sinusoidal larvae were considered alive) under an inverted optical microscope on 40× objective lenses.

[18] = in vitro; settings: human
[19] = Trichophyton mentagrophytes, ATCC11481, 96 h, read-out: MIC90

Structure (SMILES) | MIC90 [1] [µg/mL] | MIC90 [2] [µg/mL] | MIC90 [3] [µg/mL] | MIC90 [4] [µg/mL] | MIC90 [5] [µg/mL] | MIC90 [6] [µg/mL] | MFC [8] [µg/mL] | MFC [9] [µg/mL] | MFC ([10]; C. glabrata, read-out: MFC) [µg/mL] | MFC [11] [µg/mL] | MFC [12] [µg/mL] | MFC [13] [µg/mL] | MFC [14] [µg/mL] | MFC [15] [µg/mL] | IC50 [16] [µg/mL] | viability at 24 h, 250 µg/mL [17] [%] | IC50 [18] [µg/mL] | MIC90 [7, 19] [µg/mL] | other results
COc1ccc(C(=O)/C=C/c2ccc([N+](=O)[O-])o2)cc1 [Compound 12] | 250 (≈ 915 µM) | 250 (≈ 915 µM) | 250 (≈ 915 µM) | 62.5 (≈ 229 µM) | 7.81 (≈ 28.6 µM) | 0.98 (≈ 3.59 µM) | > 250 | > 250 | > 250 | 125 (≈ 457 µM) | 15.6 (≈ 57.2 µM) | 3.9 (≈ 14.3 µM) | 1.95 (≈ 7.14 µM) | 1.95 (≈ 7.14 µM) | 250 (≈ 915 µM) | > 94 | 228 (≈ 834 µM) |  | MIC90 ([7]; 96 h): 1.95 µg/mL (≈ 7.14 µM); MIC90 ([7]; Trichophyton mentagrophytes, ATCC11481, 96 h): 0.98 µg/mL (≈ 3.59 µM)
O=C(/C=C/c1ccc([N+](=O)[O-])o1)c1ccc(-n2ccnc2)cc1 [Compound 14] | 15.6 (≈ 50.4 µM) | 15.6 (≈ 50.4 µM) | 7.81 (≈ 25.3 µM) | 3.9 (≈ 12.6 µM) | 7.81 (≈ 25.3 µM) | 1.95 (≈ 6.3 µM) | 62.5 (≈ 202 µM) | 31.2 (≈ 101 µM) |  | 3.9 (≈ 12.6 µM) | 7.81 (≈ 25.3 µM) | 1.95 (≈ 6.3 µM) | 3.9 (≈ 12.6 µM) | 1.95 (≈ 6.3 µM) | 33.4 (≈ 108 µM) |  | 26.8 (≈ 86.7 µM) | 1.95 (≈ 6.3 µM) | MFC [10]: 7.81 µg/mL (≈ 25.3 µM)
O=C(NCCCc1ccccc1)c1ccc([N+](=O)[O-])o1 [Compound 5] | 125 (≈ 456 µM) | 62.5 (≈ 228 µM) | 125 (≈ 456 µM) | 7.81 (≈ 28.5 µM) | 1.95 (≈ 7.11 µM) | 15.7 (≈ 57.1 µM) | 250 (≈ 911 µM) | 62.5 (≈ 228 µM) |  | 15.6 (≈ 56.9 µM) | 1.95 (≈ 7.11 µM) | 31.2 (≈ 114 µM) | 31.2 (≈ 114 µM) | 62.5 (≈ 228 µM) | 30.1 (≈ 110 µM) | 85.7 | 39.8 (≈ 145 µM) | 31.2 (≈ 114 µM) | MIC ([4]; read-out: MIC90): 3.9 µg/mL (≈ 14.2 µM); MFC [10]: 125 µg/mL (≈ 456 µM)
O=C(NCc1ccccn1)c1ccc([N+](=O)[O-])o1 [Compound 4] | 250 (≈ 1010 µM) | 250 (≈ 1010 µM) | > 250 | 31.2 (≈ 126 µM) | 3.9 (≈ 15.8 µM) | 125 (≈ 506 µM) | > 250 | 250 (≈ 1010 µM) | > 250 | 62.5 (≈ 253 µM) | 3.9 (≈ 15.8 µM) | 7.81 (≈ 31.6 µM) | 125 (≈ 506 µM) | 250 (≈ 1010 µM) | 29.5 (≈ 119 µM) |  | 135 (≈ 547 µM) | 31.2 (≈ 126 µM) | fungistatic / fungicidal profile [15]: fungistatic profile
O=C(NCCc1ccccn1)c1ccc([N+](=O)[O-])o1 [Compound 3, 5-nitro-N-(2-(pyridin-2-yl)ethyl)furan-2-carboxamide] | > 250 | 250 (≈ 957 µM) | > 250 | 31.2 (≈ 120 µM) | 3.9 (≈ 14.9 µM) | 125 (≈ 478 µM) | > 250 | > 250 | > 250 | 62.5 (≈ 239 µM) | 3.9 (≈ 14.9 µM) | 0.98 (≈ 3.75 µM) | 125 (≈ 478 µM) | 250 (≈ 957 µM) | 231 (≈ 885 µM) | 82.5 | 250 (≈ 957 µM) | 62.5 (≈ 239 µM) | fungistatic / fungicidal profile [15]: fungistatic profile
CN(C)CCCNC(=O)c1ccc([N+](=O)[O-])o1 [Compound 6] | > 250 | > 250 | > 250 | 250 (≈ 1040 µM) | > 250 | > 250 | > 250 | > 250 | > 250 | 250 (≈ 1040 µM) | > 250 | 31.2 (≈ 130 µM) | > 250 | > 250 | 13.2 (≈ 54.8 µM) |  | 15.6 (≈ 64.7 µM) | > 250 | 
O=C(NCCc1c[nH]c2ccccc12)c1ccc([N+](=O)[O-])o1 [Compound 7] | 250 (≈ 835 µM) | 250 (≈ 835 µM) | > 250 | 62.5 (≈ 209 µM) | 0.98 (≈ 3.27 µM) | 125 (≈ 418 µM) | > 250 | > 250 | > 250 | 62.5 (≈ 209 µM) | 0.98 (≈ 3.27 µM) | 1.95 (≈ 6.52 µM) | > 250 | > 250 | 8.58 (≈ 28.7 µM) |  | 71.2 (≈ 238 µM) | 125 (≈ 418 µM) | 
